Source: patent publication US5445941A, “Method for screening anti-osteoporosis agents” (Eli Lilly and Company, priority 1993, dated 1995)

How the values were obtained:
TGFβ-3 promoter = test: Dose response of TGFβ-3 promoter (pB-301) CAT induction in MG63 cells with pRSVER; conditions: for CAT activity: vehicle 0.85
Procedure: For each group of twelve cultures, the particular estrogen or antiestrogen compound was tested in replicate cultures at […], varying in tenfold increments from 10^-9 M to 10^-5 M, as well as one set of replicate cultures treated with vehicle only (for a total of twelve cultures per experimental treatment). Hormones were dissolved in ethanol and applied to the cultures in media as described above. The four estrogens and antiestrogens tested were:
a. 17β-estradiol (Sigma Chemical Corp., St. Louis, Mo.);

LDL receptor promoter = test: LDLR-Luc production in the absence of ER (pLDLRLUC10 and pRSV vector, HepG2 cells); assay type: cell-based, human; conditions: for LDLR-Luc production: no ER, 0 M 1597
Text: A 1546 base pair sequence of the human LDL receptor promoter was amplified using the polymerase chain reaction. A reaction mixture containing 20 picomoles each of the synthetic oligonucleotides:
The 1546 base pair fragment described above was isolated and cloned into the vector pSv2 containing firefly luciferase reporter gene that had been restriction enzyme digested to completion with NdeI and partially with HindIII. The resulting vector, pLDLRLUC10 contains the human LDL receptor promoter directing expression of the firefly luciferase gene, an ampicillin resistance marker and an origin of replication.
ATCC strain HepG2 cells were co-transfected with pLDLRLUC10 and pRSV vector plasmid as described in Example IV.

[1] = system: LDL receptor messenger RNA; conditions: in vivo; cited from earlier work

`C[C@]12CC[C@@H]3c4ccc(O)cc4CC[C@H]3[C@@H]1CC[C@@H]2O` [estradiol, 17β-estradiol] showed a CAT activity (TGFβ-3 promoter; 10^-5 M, 24 h) of 3.4, a CAT activity (TGFβ-3 promoter; 10^-6 M, 24 h) of 4.3 and a CAT activity (TGFβ-3 promoter; 10^-7 M, 24 h) of 1.6. For the same compound, the CAT activity (TGFβ-3 promoter; 10^-8 M, 24 h) was 1.1, the CAT activity (TGFβ-3 promoter; 10^-9 M, 24 h) was 0.96 and the “ED50 (in words)” value (TGFβ-3 promoter; MG63 cells) was “two orders of magnitude higher than that of raloxifene”. The “TGFβ-3 promoter activation (in words)” value (TGFβ-3 promoter; MG63 cells) was “least potent inducer”, the “induction of reporter gene transcription/expression” value (TGFβ-3 promoter; mg63 cells, 24 h) was 4 fold and the “induction of LDLR promoter without ER (in words)” value (LDL receptor promoter; at or below 10^-6 M, or high concentrations as worded, FIG. 16) was “No induction”. The LDLR-Luc production (LDL receptor promoter; 10^-5 M) was 2445, the LDLR-Luc production (LDL receptor promoter; 10^-6 M) was 1578 and the LDLR-Luc production (LDL receptor promoter; 10^-7 M) was 1574. For the same compound, the LDLR-Luc production (LDL receptor promoter; 10^-8 M) was 1792, the LDLR-Luc production (LDL receptor promoter; 10^-9 M) was 1645 and the “LDL receptor messenger RNA (in words)” value [1] was “induces LDL receptor messenger RNA in vivo”.
